# Assay results from patent publication US20170266192A1, “METHODS FOR IMPROVING DIAPHRAGM FUNCTION” (CYTOKINETICS, INC., priority 2012, published 2017).
# How the values were obtained:
# [1] = test system: permeabilized single fibers from rabbit psoas muscle; test: Skinned fiber tension at constant calcium, rabbit psoas; type: cell-based
# Protocol: (§1) Muscle tissue for in vitro skinned fiber studies were prepared using a protocol based on Lynch and Faulkner (Am J Physiol 275:C1548-54 (1998)). Briefly, rat diaphragm or rabbit psoas muscles were rapidly dissected and rinsed with physiological saline. Muscles were then incubated in skinning solution (125 mM K-propionate, 20 mM imidazole, 5 mM EGTA, 2 mM MgCl2, 2 mM ATP, pH 7.0) supplemented with 0.5% Brij 58 (Sigma Chemicals, St. Louis, Mo.) or 0.5% Triton X-100 (Sigma Chemicals, St. Louis, Mo.) for 30 minutes at 4° C. Muscles were then placed in storage solution (125 mM K-propionate, 20 mM imidazole, 5 mM EGTA, 2 mM MgCl2, 2 mM ATP, glycerol 50%, pH 7.0) at −20° C. Muscles were incubated in storage solution at −20° C. for later use.
# (§2) For skinned fiber analysis, single muscle fibers were dissected from larger segments of tissue in rigor buffer at 4° C. (20 μM MOPS, 5 μM MgCl2, 120 μM potassium acetate, 1 μM EGTA, pH 7.0). […]
# (§3) The functional effects of the fast skeletal muscle troponin activator, Compound A (6-bromo-1-(ethylpropyl)imidazo[4,5-b]pyrazin-2-ol), on skeletal muscle force were assessed under isometric conditions in permeabilized single fibers from rabbit psoas muscle and rat diaphragm muscle according to the procedure of Example 1.
# [2] = test system: permeabilized single fibers from rat diaphragm muscle; test: Skinned fiber tension at constant calcium, rat diaphragm; type: cell-based
# Protocol: as §1, §2, §3
# [3] = test system: rat diaphragm muscle; test: Diaphragm repeated contraction fatigue analysis; conditions: 5 uM and 10 uM, dose-dependent; 20 Hz stimulation, 10 minutes
# Protocol: Diaphragm contractile force was measured by electrical field stimulation in an organ bath system (Radnoti) based on a standard operating protocol adapted from the Treat NMD website (http://www.treat-nmd.eu/downloads/file/sops/dmd/MDX/DMD M.1.2.002.pdf). The diaphragm and the last floating rib from SHAM and LAD rats were excised, rinsed in physiological saline, and placed in a temperature controlled water-jacketed chamber (26-27° C.) containing Krebs-Henseleit Buffer (118 mM NaCl, 10 mM glucose, 4.6 mM KCl, 1.2 mM KH2PO4, 1.2 mM MgSO4*7H2O, 24.8 mM NaHCO3, 2.5 mM CaCl2, 50 mg/L tubocurarine, 50 U/L insulin, pH:7.4) that was continuously aerated with 95% O2/[…]. After 10 minutes of equilibration, vertical strips spanning the floating rib to the central tendon were cut from diaphragms. Braided silk sutures were tied at the central tendon and floating rib and attached to a force transducer between two platinum electrodes. Diaphragm strips were set to a length that produced maximum twitch tension (Lo). […]
# Following the procedure of Example 7, diaphragms were subjected to repeated electrical stimulations (20 Hz stimulation, 330 ms train duration, 1 train/sec) over a period of 10 minutes. Force production was measured over 600 contractions in rat diaphragm muscle ex vivo by field electrical stimulation in the presence and absence of Compound B (5 uM and 10 uM).
# [4] = test system: rat skinned diaphragm fibers; test: Force-pCa skinned muscle fiber analysis; type: cell-based
# Protocol: as §1
# For skinned fiber analysis, single muscle fibers were dissected from larger segments of tissue in rigor buffer at 4° C. ([…], pH 7.0). They were then suspended between a 400 A force transducer (Aurora Scientific, Ontario, Canada) and a fixed post and secured with 2-4 μl of a 5% solution of methylcellulose in acetone. Fibers were then incubated at 10° C. in a relaxing buffer ([…], 1 mg/ml creatine kinase, 1 mM DTT, 44 ppm antifoam, pH 7.0) and baseline tension adjusted. Tension was generated in each fiber by changing fiber buffer over to relax buffer supplemented with 1 mM EGTA and one or more concentrations of aqueous calcium chloride. Test articles were added to these buffers in a 1% DMSO solution.
# Force production was measured in rat skinned diaphragm fibers exposed to increasing concentrations of calcium in the presence and absence of the fast skeletal muscle troponin activator Compound B, (3-(2-(((trans)-3-fluoro-1-(3-fluoropyridin-2-yl)cyclobutyl)methylamino)pyrimidin-5-yl)benzamide), according to the procedure of Example 1.
# Force production was measured in rat skinned diaphragm fibers exposed to increasing concentrations of calcium in the presence and absence of the fast skeletal muscle troponin activator Compound C, 1-(ethylpropyl)-6-ethynylimidazo[4,5-b]pyrazin-2-ol, according to the procedure in Example 1.
# [5] = test system: rat diaphragm muscle; test: Force-frequency relationship, ex vivo electrical field stimulation
# Protocol: (§4) Diaphragm contractile force was measured by electrical field stimulation in an organ bath system (Radnoti) based on a standard operating protocol adapted from the Treat NMD website (http://www.treat-nmd.eu/downloads/file/sops/dmd/MDX/DMD M.1.2.002.pdf). The diaphragm and the last floating rib from SHAM and LAD rats were excised, rinsed in physiological saline, and placed in a temperature controlled water-jacketed chamber (26-27° C.) containing Krebs-Henseleit Buffer (118 mM NaCl, 10 mM glucose, 4.6 mM KCl, 1.2 mM KH2PO4, 1.2 mM MgSO4*7H2O, 24.8 mM NaHCO3, 2.5 mM CaCl2, 50 mg/L tubocurarine, 50 U/L insulin, pH:7.4) that was continuously aerated with 95% O2/[…]. After 10 minutes of equilibration, vertical strips spanning the floating rib to the central tendon were cut from diaphragms. Braided silk sutures were tied at the central tendon and floating rib and attached to a force transducer between two platinum electrodes. Diaphragm strips were set to a length that produced maximum twitch tension (Lo). The force-frequency profile of the muscle was obtained by stimulating the muscle at frequencies between 10-150 Hz (Grass Stimulator, 800 ms train duration, 0.6 ms pulse width).
# Force production was measured in rat diaphragm muscle ex vivo by electrical field stimulation in the presence and absence of Compound B according to the procedure of Example 6. Compound B was suspended in DMSO and added directly to the bath.
# Force production was measured in rat diaphragm muscle ex vivo by electrical field stimulation in the presence and absence of fast skeletal muscle troponin activator Compound D, 1-(2-(((trans)-3-fluoro-1-(3-fluoropyridin-2-yl)cyclobutyl)methylamino)pyrimidin-5-yl)-1H-pyrrole-3-carboxamide according to the procedure of Example 6. Compound D was suspended in DMSO and added directly to the bath.
# [6] = test system: WT and SOD1 mouse diaphragm muscle; test: Diaphragm force-frequency relationship in a mouse ALS model; conditions: frequencies up to 30 Hz; dose-dependent
# Protocol: as §4, with “wild type (WT)” for “SHAM”, “SOD1 mice” for “LAD rats”, “width). Compound C was suspended in DMSO and directly added into the bath.” for “width).”
# [7] = test system: SOD1 mice; test: Unrestrained whole body plethysmography (UWBP); type: in vivo, mouse; conditions: 10 mg/kg
# Protocol: Wild type (WT) and SOD1 mice were dosed with vehicle or 10 mg/kg Compound C and placed in plethysmography chambers for 30 minutes of acclimatization. After acclimatization, respiratory parameters, including tidal volume, respiratory rate, and minute ventilation, were monitored for 10 minutes at room air. Upon completion of baseline room air measurements, animals were exposed to a 5% CO2 gas mixture for 30 minutes. After the 5% CO2 exposure, animals were re-exposed to room air and monitored.
# [8] = test system: skinned diaphragm fibers from SHAM and LAD rats; test: Force-pCa skinned muscle fiber analysis in a rat model of HF; type: cell-based; conditions: 3 μM
# Protocol: as §1
# For skinned fiber analysis, single muscle fibers were dissected from larger segments of tissue in rigor buffer at 4° C. (20 μM MOPS, 5 μM MgCl2, 120 μM potassium acetate, 1 μM EGTA, pH 7.0). They were then suspended between a 400 A force transducer (Aurora Scientific, Ontario, Canada) and a fixed post and secured with 2-4 μl of a 5% solution of methylcellulose in acetone. […]
# Force production was measured in skinned diaphragm fibers from SHAM and LAD rats exposed to increasing concentrations of calcium in the presence and absence of Compound D according to the procedure of Example 1.
# [9] = skinned fibers, constant calcium, 10 nM-40 μM
# [10] = 30 μM, submaximal frequencies of electrical stimulation
smiles,measurement,setting,value
"CCC(CC)n1c(O)nc2ncc(Br)nc21 [Compound A, 6-bromo-1-(ethylpropyl)imidazo[4,5-b]pyrazin-2-ol]",EC50,"[1]; rabbit psoas fibers, constant free calcium 1.78 μM (pCa=5.75), n=3, read-out: EC50, increase in skinned fiber tension",0.59 µM
same,tension in rabbit psoas muscle,[1]; [9],increased tension
same,EC50,"[2]; rat diaphragm fibers, constant free calcium 3.16 μM (pCa=5.5), n=4, read-out: EC50, increase in skinned fiber tension",1.2 µM
same,tension in rat diaphragm muscle,[2]; [9],increased tension
"NC(=O)c1cccc(-c2cnc(NC[C@]3(c4ncccc4F)C[C@H](F)C3)nc2)c1 [Compound B, 3-(2-(((trans)-3-fluoro-1-(3-fluoropyridin-2-yl)cyclobutyl)methylamino)pyrimidin-5-yl)benzamide]",force production over 600 contractions compared to vehicle-only diaphragms,[3],significantly more force
same,"pCa at 50% of Maximum Tension, Log [Ca^2+] (M)","[4]; 0.5 uM compound, vehicle −5.43 ± 0.03",−5.78 ± 0.008 M
same,"pCa at 50% of Maximum Tension, Log [Ca^2+] (M)","[4]; 1 uM compound, vehicle −5.43 ± 0.03",−5.90 ± 0.03 M
same,increase in calcium sensitivity compared to vehicle-only muscle fibers,[4]; 10 μM Compound B,10 fold
same,"pCa at 50% of Maximum Tension, Log [Ca^2+] (M)","[4]; 10 uM compound, vehicle −5.43 ± 0.03",−6.46 ± 0.03 M
same,force production compared to vehicle-only diaphragms,[5]; frequencies up to 30 Hz of electrical stimulation,significantly more force
"C#Cc1cnc2nc(O)n(C(CC)CC)c2n1 [Compound C, 1-(ethylpropyl)-6-ethynylimidazo[4,5-b]pyrazin-2-ol]",force production in SOD1 diaphragm muscle compared to vehicle-only,[6],significantly more force
same,force production in WT diaphragm muscle compared to vehicle-only,[6],significantly more force
same,"pCa at 50% of Maximum Tension, Log [Ca^2+] (M)","[4]; 0.1 uM compound, vehicle −5.43 ± 0.054",−5.59 ± 0.007 M
same,"pCa at 50% of Maximum Tension, Log [Ca^2+] (M)","[4]; 1 uM compound, vehicle −5.43 ± 0.054",−6.19 ± 0.018 M
same,increase in calcium sensitivity compared to vehicle-only muscle fibers,[4]; 10 μM Compound C,10 fold
same,"pCa at 50% of Maximum Tension, Log [Ca^2+] (M)","[4]; 10 uM compound, vehicle −5.43 ± 0.054",−6.74 ± 0.28 M
same,tidal volume at recovery compared to vehicle-treated animals,[7]; after 30 minute exposure to 5% CO2,significantly higher tidal volume
same,tidal volume at baseline compared to vehicle-treated animals,[7]; room air,significantly higher tidal volume
"NC(=O)c1ccn(-c2cnc(NCC3(c4ncccc4F)CC(F)C3)nc2)c1 (stereo not drawn) [Compound D, 1-(2-(((trans)-3-fluoro-1-(3-fluoropyridin-2-yl)cyclobutyl)methylamino)pyrimidin-5-yl)-1H-pyrrole-3-carboxamide]",force in HF (LAD) diaphragms,[5]; [10],significantly increased force
same,force in SHAM diaphragms,[5]; [10],significantly increased force
same,Ca^2+ sensitivity of HF diaphragm fibers,[8],significantly increased Ca^2+ sensitivity
same,Ca^2+ sensitivity of SHAM diaphragm fibers,[8],significantly increased Ca^2+ sensitivity
